Data: ChEMBL document CHEMBL1149422, “Expedited SAR study of high-affinity ligands to the alpha(2)delta subunit of voltage-gated calcium channels: Generation of a focused library using a solution-phase Sn2Ar coupling methodology” (Bioorg Med Chem Lett, 2006)

target: Voltage-dependent calcium channel subunit alpha-2/delta-1 (Homo sapiens, UniProt P54289); assay: [3H]Gabapentin binding in human A710 membrane expressing alpha-2delta subunit of calcium channel; type: cell membranes
Sequence (P54289 25-956 limits assumed): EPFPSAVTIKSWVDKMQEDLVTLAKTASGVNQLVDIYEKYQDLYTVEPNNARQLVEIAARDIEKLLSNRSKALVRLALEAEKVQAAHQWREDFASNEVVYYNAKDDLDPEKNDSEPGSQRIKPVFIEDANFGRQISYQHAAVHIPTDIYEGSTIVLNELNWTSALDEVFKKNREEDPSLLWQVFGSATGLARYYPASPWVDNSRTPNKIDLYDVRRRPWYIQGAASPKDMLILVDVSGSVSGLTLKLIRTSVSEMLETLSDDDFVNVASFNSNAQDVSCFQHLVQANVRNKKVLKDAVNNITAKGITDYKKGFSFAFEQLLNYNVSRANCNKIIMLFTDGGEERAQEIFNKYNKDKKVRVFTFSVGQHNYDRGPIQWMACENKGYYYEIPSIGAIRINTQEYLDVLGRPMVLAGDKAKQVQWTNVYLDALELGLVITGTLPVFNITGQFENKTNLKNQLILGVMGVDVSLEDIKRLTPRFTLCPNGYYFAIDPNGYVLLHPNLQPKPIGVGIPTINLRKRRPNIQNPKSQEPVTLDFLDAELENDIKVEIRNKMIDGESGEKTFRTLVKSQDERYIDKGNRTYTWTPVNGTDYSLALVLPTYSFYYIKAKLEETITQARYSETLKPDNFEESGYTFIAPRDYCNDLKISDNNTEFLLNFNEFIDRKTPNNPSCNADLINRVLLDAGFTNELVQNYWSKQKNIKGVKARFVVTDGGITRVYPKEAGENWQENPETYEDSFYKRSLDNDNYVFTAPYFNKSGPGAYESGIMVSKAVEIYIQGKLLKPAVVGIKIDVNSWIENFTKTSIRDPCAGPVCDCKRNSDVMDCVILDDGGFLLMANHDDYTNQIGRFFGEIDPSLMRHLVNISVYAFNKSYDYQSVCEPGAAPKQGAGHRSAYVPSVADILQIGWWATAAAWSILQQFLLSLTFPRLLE
Sequence (P54289 957-1103 limits assumed): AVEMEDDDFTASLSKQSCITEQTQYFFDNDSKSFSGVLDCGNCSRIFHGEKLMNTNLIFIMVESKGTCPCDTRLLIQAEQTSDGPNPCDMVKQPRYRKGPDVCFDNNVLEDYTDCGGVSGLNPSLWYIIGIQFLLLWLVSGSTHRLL

SMILES	IC50 [nM]
CCOc1ccc(-n2c(C)c3c(C)nnc(NCc4ccncc4)c3c2C)cc1	84
CCCCNc1nnc(C)c2c(C)n(-c3ccc(OCC)cc3)c(C)c12	61
CCOc1ccc(-n2c(C)c3c(C)nnc(Nc4ccc5c(c4)CCC5)c3c2C)cc1	199
CCOc1ccc(-n2c(C)c3c(C)nnc(NC(C)CC(C)C)c3c2C)cc1 (stereo not drawn)	296
CCOc1ccc(-n2c(C)c3c(C)nnc(N4CCC(c5ccccc5)(c5ccccc5)C4)c3c2C)cc1	153
CCOc1ccc(-n2c(C)c3c(C)nnc(NCc4ccc(F)cc4)c3c2C)cc1	94
CCOc1ccc(-n2c(C)c3c(C)nnc(Nc4ccc5[nH]ncc5c4)c3c2C)cc1	36
CCOc1ccc(-n2c(C)c3c(C)nnc(N4CC(C)CC(C)C4)c3c2C)cc1 (stereo not drawn)	702
CCOc1ccc(-n2c(C)c3c(C)nnc(N4CCN(C)CC4)c3c2C)cc1	2930
CCOc1ccc(-n2c(C)c3c(C)nnc(NCc4cccc5[nH]ccc45)c3c2C)cc1	70
CCOc1ccc(-n2c(C)c3c(C)nnc(NCC4CCCO4)c3c2C)cc1 (stereo not drawn)	50
CCOc1ccc(-n2c(C)c3c(C)nnc(Nc4ccc5c(c4)OCO5)c3c2C)cc1	207
CCOc1ccc(-n2c(C)c3c(C)nnc(N4C[C@@H]5CCc6ccccc6[C@@H]5C4)c3c2C)cc1	84
CCOc1ccc(-n2c(C)c3c(C)nnc(NC(C)C)c3c2C)cc1	67
CCOc1ccc(-n2c(C)c3c(C)nnc(N4CCC(NC(C)=O)C4)c3c2C)cc1 (stereo not drawn)	144
CCOc1ccc(-n2c(C)c3c(C)nnc(NC4CCc5ccccc54)c3c2C)cc1 (stereo not drawn)	54
CCOc1ccc(-n2c(C)c3c(C)nnc(N4CC(C)OC(C)C4)c3c2C)cc1 (stereo not drawn)	> 3000
CCOc1ccc(-n2c(C)c3c(C)nnc(NCC(C)CC)c3c2C)cc1 (stereo not drawn)	84
CCOc1ccc(-n2c(C)c3c(C)nnc(NCc4cccc(F)c4)c3c2C)cc1	18

SMILES	IC50 [nM]
CCOc1ccc(-n2c(C)c3c(C)nnc(NCc4cnn(CC)c4)c3c2C)cc1	64
CCOc1ccc(-n2c(C)c3c(C)nnc(NCc4ccc5c(n4)NCCC5)c3c2C)cc1	32
CCOc1ccc(-n2c(C)c3c(C)nnc(NCc4ccc(Cl)cc4)c3c2C)cc1	65
CCOc1ccc(-n2c(C)c3c(C)nnc(NC4CCCc5ccccc54)c3c2C)cc1 (stereo not drawn)	161
CCOc1ccc(-n2c(C)c3c(C)nnc(Nc4ccc5[nH]nnc5c4)c3c2C)cc1	346
CCOc1ccc(-n2c(C)c3c(C)nnc(NCc4cccc(OC)c4)c3c2C)cc1	239
CCOc1ccc(-n2c(C)c3c(C)nnc(NCc4cnn(C)c4)c3c2C)cc1	69
CCOc1ccc(-n2c(C)c3c(C)nnc(N4CCCC4)c3c2C)cc1	180
CCOc1ccc(-n2c(C)c3c(C)nnc(NCc4ccccc4OC)c3c2C)cc1	76
CCOc1ccc(-n2c(C)c3c(C)nnc(NCc4cccnc4)c3c2C)cc1	119
CCOc1ccc(-n2c(C)c3c(C)nnc(N4CCC5=C(C4)NC4C=CC=CC54)c3c2C)cc1 (stereo not drawn)	135
CCOc1ccc(-n2c(C)c3c(C)nnc(NCc4cccc(Cl)c4)c3c2C)cc1	37
CCOc1ccc(-n2c(C)c3c(C)nnc(NCc4cccc5cccnc45)c3c2C)cc1	63
CCOc1ccc(-n2c(C)c3c(C)nnc(Nc4ccc5[nH]ccc5c4)c3c2C)cc1	30
CCOc1ccc(-n2c(C)c3c(C)nnc(NCc4n[nH]cc4C4CC4)c3c2C)cc1	68
CCOc1ccc(-n2c(C)c3c(C)nnc(NCc4ccc(OC)cc4)c3c2C)cc1	702
CCOc1ccc(-n2c(C)c3c(C)nnc(N4CCC(C)CC4)c3c2C)cc1	370
CCOc1ccc(-n2c(C)c3c(C)nnc(N4CCOCC4)c3c2C)cc1	1690
CCOc1ccc(-n2c(C)c3c(C)nnc(NCc4ccccn4)c3c2C)cc1	> 3000
